# Test results: patent publication US12544365B2, “Pharmaceutical combination of an EP4 antagonist and immune checkpoint inhibitors for the treatment of tumours” (ROTTAPHARM BIOTECH S.R.L., priority 2019, dated 2026)
# Experiments:
# [1] = system: Treg differentiation of human CD4+ naïve T cells; experiment: Ex vivo human T regulatory cells differentiation (flow cytometry); format: cell-based; conditions: 0.1 μM compound, 0.03 μM PGE2, 144 hours
# Method: Peripheral blood mononuclear cells (PBMC) were isolated from healthy volunteers using density gradient centrifugation and CD4+naïve T cells were enriched from PBMCs using human naïve CD4+ T cell isolation kit (Miltenyi Biotech). Isolated CD4+ T cells were maintained in RPMI medium and differentiated toward a Treg phenotype using two interleukins, namely, rIL23 and rIL-1B, both at a concentration of 10 ng/ml and co-stimulated with PGE2 at 30 nM concentration over a 144 hours incubation period.
# At the end of incubation cells were stained with fluorescence conjugated antibodies specific for CD3, CD4, FoxP3, CD25, IL35 and CRTH2 (all from BD Bioscience). Finally, the number of Treg cells was determined by flow cytometry and the events were measured by Fluorescence Activated Cell Sorter (FACS; BD Bioscience) and analyzed with dedicated software.
# [2] = system: PGE2 effect on TNF-α release in rat whole blood culture; experiment: In vitro TNF-α release induced by LPS and modulated by PGE2, rat whole blood culture; format: cell-based; conditions: 0.1 μg/ml LPS + fixed PGE2 concentration giving about 80% inhibition, 4 hours, read-out: IC50, reversal of PGE2 effect on TNF-α release
# Method: Male Wistar Han rats (250-300 g b.w., Charles River, Italy) were housed six per cage in a temperature-controlled room, set to maintain temperature within the range of 20° C. #2° C. and relative humidity within the range of 55%±10 and with a 12-h/12-h light/dark cycle. Throughout the study animals had free access to standard laboratory chow (Teklad rodent diet 2018, Harlan Laboratories, S. Pietro al Natisone, UD, Italy) and drinking water. Care and handling of the animals were in accordance with the guidelines of the Local Government and the regulations of the European Community. Authorization for experimental procedures was granted by the Italian Ministry of Health. The day of the experiments animals were anaesthetized with 2.5-3% isoflurane in O2 inside an induction chamber and blood was drawn from the abdominal aorta. Whole blood samples were collected in tubes containing 0.1-0.2U/ml heparin. […]
# In samples representing basal release of the cytokine, LPS was substituted by the same volume of sterile PBS. […] The levels of TNF-α release in rat whole blood culture were evaluated using the Rat TNFalpha ELISA kit (Diaclone, France). Compared to the reference standard curve, TNF-α levels in samples were expressed as concentration (pg/ml).
# [3] = system: CT26 cancer cell tumours; experiment: CT26 syngeneic model of mouse colorectal cancer in Balb/c mice; format: in vivo; conditions: compounds 30 mg/kg oral daily day 7-23; anti PD-1 i.p. 20 mg/kg day 8, 10 mg/kg days 13, 19, 22
# Method: Male Balb/c mice 4-6 weeks old were housed five per cage in a temperature and humidity controlled room with a 12h/12h light/dark cycle. Throughout the experiment the animals had free access to food and water. The Balb/c mice were randomly divided into 6 groups (n=15 in each group): vehicle, Compound 1, Compound 2, anti PD-1, Compound 1+anti PD-1, Compound 2+anti PD-1 group.
# CT26 cells were purchased from ATCC and cultured in Dulbecco's Modified Eagle's Medium (DMEM; ThermoFisher Scientific) supplemented with 10% fetal bovine serum (FBS; Sigma Aldrich) at 37° C. in an incubator with 5% CO2. Cells were sub-cultured twice a week until the number of cells needed for inoculation was obtained.
# On the day of transplantation (day 0) logarithmic growing phase cells were harvested, diluted in PBS and 10^6 cells in 0.2 ml of PBS were subcutaneously inoculated into the lateral abdominal region of each mouse using a 26G syringe.
# On day 7 after inoculation the mice were randomized into the 6 treatment groups each of 15 animals receiving respectively vehicle, Compound 1, Compound 2, anti PD-1 and the combination therapies. […]
# Tumour sizes (mm^3) were evaluated twice a week by using a digital caliper. The tumour volumes were calculated measuring the tumour lengths along the major and minor axis and using the formula: Volume=[[…]]/2.
# [4] = Physical and chemical stability testing of solid forms (mechanical, thermal stress)
# [5] = system: RANK-L gene expression in MDA-MB-231 cells; experiment: RANK-L gene expression in MDA-MB-231 cells stimulated with PGE2, RT-PCR; format: cell-based, human; conditions: 10 μM compound + 10 μM PGE2, 24 hours
# Method: The human mammary gland adenocarcinoma MDA-MB-231 cells were obtained from ATCC and grown according to the instructions provided.
# Cells were treated with 10 μM PGE2+Compound 1 10 μM for 24 hours. Total RNA was purified using the ABI Prism 6100 Nucleic Acid PrepStation (Applied Biosystems, Foster City, CA, USA) and retrotranscribed using the High-Capacity cDNA Reverse Transcription Kit (Thermo Fisher Scientific). RT-PCR analysis was performed using the Applied Biosystems 7500 Fast Real-Time PCR System using specific TaqMan assays (Hs00243522_m1; Thermo Fisher Scientific) and, as an endogenous control, the 18S Pre-Developed TaqMan® Assay (Thermo Fisher Scientific). The data analysis, with normalisation on 18S amplified values, was done following Thermo Fisher Scientific specific instructions for gene expression relative quantification. All individual data are the result of at least three different analyses for each sample.
# MDA-MB-231 cells treated with 10 μM PGE2+Compound 1 10 μM for 24 hours and the levels of RANKL gene expression were evaluated by quantitative RT-PCR.
smiles,measurement,setting,value
"O=C([O-])c1ccc(C2(NC(=O)[C@H]3CC4(CCN3Cc3ccc(C(F)(F)F)cc3)CC4)CC2)cc1.[Na+] [Compound 1, sodium (R)-4-(1-(6-(4-(trifluoromethyl)benzyl)-6-azaspiro[2.5]octane-5-carboxamido)cyclopropyl)benzoate]",Treg cell differentiation,[1],significantly decreased
same,IC50,[2],2300 nM
same,effect on tumour growth (tumour volume),[3],mild inhibitory effect on cancer growth starting at the second week of treatment
same,thermodynamic stability of the form,[4],most thermodynamically stable anhydrous form
same,physical stability (conversion to amorphous form),[4]; mechanical or thermal stress,more stable towards amorphization by thermal stress
same,RANK-L gene expression vs 10 μM PGE2,[5],markedly decreased
